What was measured:
[1] = tested on: PAF-stimulated PMN locomotion in the rat mesentery; experiment: Intravital time lapse videomicroscopy of PMN locomotion in rat mesentery in vivo; conditions: PAF 10^-7 M
Description: Intravital time lapse videomicroscopy of PMN locomotion in vivo. PMN locomotion in rat mesenteric tissue was studied through use of intravital time lapse videomicroscopy according to the protocol previously described in detail (Werr et al., supra). In brief, Wistar rats (200-250 g) were anesthetized with equal parts of fluanison/fentanyl (10/0.2 mg/ml; Hypnorm; Janssen-Cilag Ltd., Saunderton, UK) and midazolam (5 mg/ml; Dormicum; Hoffman-La Roche, Basel, Switzerland) diluted 1:1 with sterile water (2 ml/kg i.m.). Body temperature was maintained at 37° C. by a heating pad connected to a rectal thermistor. After laparotomy, a segment of the ileum was exposed on a heated transparent pedestal to allow microscopic observation of the mesenteric microvasculature (Orthoplan microscope equipped with water immersion lens SW×25, NA 0.60; Leitz, Wetzlar, Germany). The microscopic image was televised and recorded on time lapse video (at 1/7 of normal speed). Analysis of leukocyte migration in the mesenteric tissue was made off line and the migration path of individual leukocytes was tracked with a digital image analyzer.
Leukocyte extravasation and migration was induced by soaking the exposed mesentery with 5 ml bicarbonate buffer solution (37° C.) containing PAF at a concentration of 10^−7 M. The tissue was then covered with a transparent plastic film to provide continues chemotactic stimulation by PAF. After 40 min of chemotactic stimulation, when numerous leukocytes had extravasated, time lapse recording of leukocyte migration was undertaken, first for 20 min to assess basal migration rates in response to PAF stimulation, and then for additional 40 min in the presence of PAF together with antibodies or peptides. The antibody concentration in the mixture administered to the tissue was for all antibodies 100 μg/ml. The peptide DGEA was similarly administered at a concentration of 25 mM and SLIDIP/RGDGW at a concentration of 500 μM. Due to dilution of the reagent in fluid covering the tissue these seemingly high doses, ˜10 times the documented effective blocking dose, were chosen in order to reach a sufficient concentration in proximity of the migrating leukocytes in the tissue. […] As previously documented, more than 85% of the migrating cells were neutrophils (Werr et al., supra).

[2] = tested on: fMLP-stimulated human PMN locomotion in collagen (type I) gels; experiment: PMN migration in gels of collagen (type I); assay type: cell-based; conditions: fMLP 10^-7 M; DGEA 5 mM; 30 min at 37° C.
Description: PMN migration in gels of collagen (type I) and gelatin. Gels were formed in 24-well culture dishes (250 μl/well) by mixing 8.5 volumes of rat collagen solution or bovine gelatin solution (Sigma) at a concentration of 1.5 mg/ml with 1 volume of ×10 MEM (Life Technologies, Gaithersburg, Md.) and 0.5 volume of 4.4% NaHCO3 and fMLP (final concentration 10^−7 M). Purified human PMN (0.5×106), suspended in 200 μl of MEM containing 10^−9 fMLP were placed on top of the gels and incubated with or without mAb:s or peptides for 30 min at 37° C. The final concentration was for all mAb:s 20 μg/ml, for DGEA 5 mM and for SLIDIP/RGDGW 100 μM. Four to six experiments were run in duplicate gels for each reagent tested and ten randomly chosen microscopic fields (with a defined area of 0.0625 mm) were analyzed in each gel. The migration of PMN into the gel was analyzed with an Leitz Orthoplan microscope equipped with a water immersion lens (Leitz UO×55W, NA 0.80) by focusing down through the gel. The calibrated micrometer scale in the fine focus adjustment was used to determine the migration distance of individual PMN from the upper gel surface. The average migration distance of the three leading cells in each field was calculated and defined as the migration distance of the leading front.

[3] = ten-fold higher concentrations of SLIDIP/RGDGW in some experiments

ACRGDGWMCG
effect on PMN migration (in words) [1, 3]: did not yield different effects | effect on PMN migration (in words) ([1]; topical SLIDIP/RGDGW 500 μM): without effect

SLIDIP
effect on PMN migration (in words) [1, 3]: did not yield different effects | effect on PMN migration (in words) ([1]; topical SLIDIP/RGDGW 500 μM): without effect

DGEA
inhibition of PMN migration velocity ([1]; topical DGEA 25 mM, p<0.001): 70±10% | migration distance of the leading front in collagen gels (in words) [2]: to the level of non-stimulated cells
